How the values were obtained:
JNK1 kinase = target: T1, JNK1 kinase (Homo sapiens, UniProt P45983); assay: JNK1 activity screening (time-resolved fluorometric HTRF kinase assay); type: biochemical; details: enzymatic assay, activity level
T1 construct: purchased Carna Biosciences 04-163
Method: JNK1 activity screening. JNK1 activity was detected using a 96-well (Cisbio, 66PL96025) time-resolved fluorometric assay. The JNK1 assay was conducted in the following assay buffer: 10 mM MgCl2 (Sigma, M1028), 1 mM MnCl2 (Sigma, M1787), 1 mM DTT (Sigma, D0632) and 1× Enzymatic buffer/kinase (Cisbio, 62EZBFDC). By using the assay buffer, 3 μL of 0.1 ng/μL JNK1 kinase (Carna Biosciences, 04-163) was added to a 96-well microplate, and then 4 μL of a compound diluted appropriately (with a DMSO content of 2.5%) was added. The resulting mixture was incubated at room temperature for 0.5 h. To start the reaction, the assay buffer was used to mix 0.003 μM ATP (Aladdin, A7699) and 30 μM substrate ATF2-GST fusion (Cisbio, 64CUS000AFPEB), and 3 μL of the mixed solution was added to the microplate. The resulting mixture was incubated at room temperature for 2.5 h. HTRF detection buffer ([…], 62SDBRDD) was used then to prepare a mixture of 5 μg/mL MAb Anti GST-XL665 (Cisbio, 61GSTXLA) and 0.045 μg/mL PAb Anti-phospho ATF2-K (Cisbio, 61P12KAZ), and 10 μL of the mixture was added to the plate to terminate the reaction. After incubation for about 12 h, the plate was read on a Perkin-Elmer Envision reader.

[1] = system: RAW264.7 phosphorylated c-Jun (Ser63); assay: RAW264.7 phosphorylated c-Jun whole cell assay; type: cell-based; details: Mus musculus; cytological assay, activity level; lipopolysaccharide-activated RAW264.7 cells, phospho-c-Jun (Ser63) ELISA
Method: RAW264.7 (ATCC TIB-71) cells were purchased from BeNa Culture Collection and maintained in a high-glucose DMEM medium (Gibco) containing 10% fetal bovine serum (Gibco) and 1% penicillin-streptomycin (Gibco). All cells were cultured at 37° C. in 95% air and 5% CO2. All cells were seeded into 120 μL of cell culture medium in a 96-well plate at a density of 2×10^5 cells per well. The stock solution of compound (15 mM) was serially diluted in DMSO (Sigma) and further diluted in growth medium, and it was then added at 15 μL per well as a 10× concentrated solution, well mixed with the cells and incubated with the cells for 30 min. Concentration of the compound vehicle (DMSO) in each well was 0.2%. After incubation for 30 min, the cells were activated with […] lipopolysaccharide (Sigma). Lipopolysaccharide was added to the growth medium as a 10× concentrated solution at 15 μL per well. The cell plate was incubated for 1 h, and then all the medium was removed. The level of C-Jun protein with phosphorylation of serine at site 63 was measured using the whole cell lysate kit-phosphorylated C-Jun assay (PathScan® Phospho-c-Jun (Ser63) Sandwich ELISA Kit) (CST, 7145C) according to the manufacturer's instructions.

T1 sequence (P45983 whole entry): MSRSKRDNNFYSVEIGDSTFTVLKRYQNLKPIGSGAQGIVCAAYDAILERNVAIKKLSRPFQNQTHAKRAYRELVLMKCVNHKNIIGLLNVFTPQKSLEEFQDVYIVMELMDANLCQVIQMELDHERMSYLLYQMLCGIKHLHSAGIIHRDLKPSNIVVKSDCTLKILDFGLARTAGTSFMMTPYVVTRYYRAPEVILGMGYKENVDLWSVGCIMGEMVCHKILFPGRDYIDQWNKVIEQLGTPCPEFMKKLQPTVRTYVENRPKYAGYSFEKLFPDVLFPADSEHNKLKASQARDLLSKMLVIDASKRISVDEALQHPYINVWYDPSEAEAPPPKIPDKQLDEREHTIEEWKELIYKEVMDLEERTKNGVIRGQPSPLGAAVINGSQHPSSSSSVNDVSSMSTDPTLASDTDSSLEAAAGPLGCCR

IC50 (JNK1 kinase) | IC50 [1] | SMILES
> 1000 nM | > 1000 nM | C[C@@H]1CC[C@@H](Nc2nc(NC(C)(C)C)ncc2F)C[C@H]1O [Compound T012, (1R,2R,5R)-5-((2-(tert-butylamino)-5-fluoropyrimidin-4-yl)amino)-2-methylcyclohexan-1-ol]
500 to 1000 nM | > 1000 nM | C[C@@H]1CC[C@@H](Nc2nc(NC(C)(C)C)ncc2Cl)C[C@H]1O [Compound T013, (1R,2R,5R)-5-((2-(tert-butylamino)-5-chloropyrimidin-4-yl)amino)-2-methylcyclohexan-1-ol]
> 1000 nM | > 1000 nM | Cc1cnc(NC(C)(C)C)nc1N[C@@H]1CC[C@@H](C)[C@H](O)C1 [Compound T014, (1R,2R,5R)-5-((2-(tert-butylamino)-5-methylpyrimidin-4-yl)amino)-2-methylcyclohex-1-ol]
< 100 nM | 500 to 1000 nM | C[C@@H]1CC[C@@H](Nc2nc(NC3CC4(COC4)C3)ncc2C(N)=O)C[C@H]1O [Compound T015, 2-((2-oxaspiro[3.3]heptan-6-yl)amino)-4-(((1R,3R,4R)-3-hydroxy-4-methylcyclohexyl)amino)pyrimidine-5-carboxamide]
< 100 nM | 500 to 1000 nM | CC(C)(C)Nc1ncc(C(N)=O)c(NC2CCC(=O)NC2)n1 (centres unmarked) [Compound T016, 2-(tert-butylamino)-4-((6-oxopiperidin-3-yl)amino)pyrimidine-5-carboxamide]
< 100 nM | 500 to 1000 nM | CC(C)(C)Nc1ncc(C(N)=O)c(NC2CCC(=O)N(CCO)C2)n1 (stereo not drawn) [Compound T017, 2-(tert-butylamino)-4-((l-(2-hydroxyethyl)-6-oxopiperidin-3-yl)amino)pyrimidine-5-carboxamide]
100 to 500 nM | 500 to 1000 nM | CC(C)(C)Nc1ncc(C(N)=O)c(N2CCCC(CO)C2)n1 (centres unmarked) [Compound T018, 2-(tert-butylamino)-4-(3-(hydroxymethyl)piperidin-1-yl)pyrimidine-5-carboxamide]
100 to 500 nM | 500 to 1000 nM | CC(C)(C)Nc1ncc(C(N)=O)c(N2CCC(CO)C2)n1 (centres unmarked) [Compound T019, 2-(tert-butylamino)-4-(3-(hydroxymethyl)pyrrolidin-1-yl)pyrimidine-5-carboxamide]
100 to 500 nM | 500 to 1000 nM | CC(C)(C)Nc1ncc(C(N)=O)c(N2CC(C(C)(C)O)C2)n1 [Compound T020, 2-(tert-butylamino)-4-(3-(2-hydroxypropan-2-yl)azetidin-1-yl) pyrimidine-5-carboxamide]
100 to 500 nM | > 1000 nM | CC(C)(C)Nc1ncc(C(N)=O)c(NC2CCCN(C(N)=O)C2)n1 (centres unmarked) [Compound T021, 2-(tert-butylamino)-4-((1-carbamoylpiperidin-3-yl)amino) pyrimidine-5-carboxamide]
500 to 1000 nM | > 1000 nM | C[C@@H]1CC[C@@H](Nc2nc(N3CCOCC3)ncc2C(N)=O)C[C@H]1O [Compound T022, 4-(((1R,3R,4R)-3-hydroxy-4-methylcyclohexyl)amino)-2-morpholinopyrimidine-5-carboxamide]
500 to 1000 nM | > 1000 nM | C[C@@H]1CC[C@@H](Nc2nc(N3CCNC(=O)C3)ncc2C(N)=O)C[C@H]1O [Compound T023, 4-(((1R,3R,4R)-3-hydroxy-4-methylcyclohexyl)amino)-2-(3-oxopiperazin-1-yl)pyrimidine-5-carboxamide]
< 100 nM | 100 to 500 nM | CCNC(=O)N1CCC(Nc2ncc(C(N)=O)c(N[C@@H]3CC[C@@H](C)[C@H](O)C3)n2)CC1 [Compound T024, 2-((l-(ethylcarbamoyl)piperidin-4-yl)amino)-4-(((1R,3R,4R)-3-hydroxy-4-methylcyclohexyl)amino)pyrimidine-5-carboxamide]
< 100 nM | > 1000 nM | CC(C)(C)Nc1ncc(C(N)=O)c(NC2CCCNC2)n1 (centres unmarked) [Compound T025, 2-(tert-butylamino)-4-(piperidin-3-ylamino)pyrimidine-5-carboxamide]
< 100 nM | 100 to 500 nM | CC(C)(C)Nc1ncc(C(N)=O)c(Nc2cccc(CO)c2)n1 [Compound T026, 2-(tert-butylamino)-4-((3-(hydroxymethyl)phenyl)amino)pyrimidine-5-carboxamide]

Second part, the molecule before the results:

SMILES | IC50 (JNK1 kinase) | IC50 [1]
C[C@@H]1CC[C@@H](Nc2nc(NC(C)(C)C)ncc2C(N)=S)C[C@H]1O [Compound T001, 2-(tert-butylamino)-4-(((1R,3R,4R)-3-hydroxy-4-methylcyclohexyl)amino) pyrimidine-5-carbothioamide] | < 100 nM | 100 to 500 nM
C[C@@H]1CC[C@@H](Nc2nc(NC(C)(C)C)ncc2C#N)C[C@H]1O [Compound T001A, 2-(tert-butylamino)-4-(((1R,3R,4R)-3-hydroxy-4-methylcyclohexyl)amino) pyrimidine-5-carbonitrile] | 100 to 500 nM | 100 to 500 nM
C[C@@H]1CC[C@@H](Nc2nc(NC(C)(C)C)ncc2/C(N)=N\O)C[C@H]1O [Compound T002, (E)-2-(tert-butylamino)-N′-hydroxy-4-(((1R,3R,4R)-3-hydroxy-4-methylcyclohexyl)amino)pyrimidine-5-carboximidamide] | < 100 nM | 100 to 500 nM
C[C@@H]1CC[C@@H](Nc2nc(NC(C)(C)C)ncc2C(=N)N)C[C@H]1O [Compound T003, 2-(tert-butylamino)-4-(((1R,3R,4R)-3-hydroxy-4-methylcyclohexyl)amino) pyrimidine-5-carboximidamide] | 500 to 1000 nM | > 1000 nM
C[C@@H]1CC[C@@H](Nc2nc(Nn3cnnc3)ncc2C(N)=O)C[C@H]1O [Compound T004, 2-((4H-1,2,4-triazol-4-yl)amino)-4-(((1R, 3R,4R)-3-hydroxy-4-methylcyclohexyl)amino)pyrimidine-5-carboxamide] | > 1000 nM | > 1000 nM
C[C@@H]1CC[C@@H](Nc2nc(NC(C)(C)C)ncc2C(C)(C)O)C[C@H]1O [Compound T005, (1R,2R,5R)-5-((2-(tert-butylamino)-5-(2-hydroxypropan-2-yl)pyrimidin-4-yl)amino)-2-methylcyclohexan-1-ol] | > 1000 nM | > 1000 nM
COC(=O)c1cnc(NC(C)(C)C)nc1N[C@@H]1CC[C@@H](C)[C@H](O)C1 [Compound T005A, Methyl 2-(tert-butylamino)-4-(((IR,3R,4R)-3-hydroxy-4-methylcyclohexyl)amino) pyrimidine-5-carboxylate] | > 1000 nM | > 1000 nM
CC(C)(C)Nc1ncc(C(N)=O)c(N2CCC(O)CC2)n1 [Compound T006, 2-(tert-butylamino)-4-(4-hydroxypiperidin-l-yl)pyrimidine-5-carboxamide] | > 1000 nM | > 1000 nM
CC(C)(C)Nc1ncc(C(N)=O)c(NC2CCCN(C(=O)CC#N)C2)n1 (centres unmarked) [Compound T007, 2-(tert-butylamino)-4-((1-(2-cyanoacetyl)piperidin-3-yl)amino)pyrimidine-5-carboxamide] | > 1000 nM | > 1000 nM
CC(C)(C)Nc1ncc(C(N)=O)c(NC2CCCN(C(=O)CC(=O)O)C2)n1 (stereo not drawn) [Compound T008, 3-(3-((2-(tert-butylamino)-5-carbamoylpyrimidin-4-yl)amino)piperidin-l-yl)-3-oxopropanoic acid] | > 1000 nM | > 1000 nM
CC(C)(C)Nc1ncc(C(N)=O)c(NCC2CCC(=O)N2)n1 (centres unmarked) [Compound T009, 2-(tert-butylamino)-4-(((5-oxopyrrolidin-2-yl)methyl)amino)pyrimidine-5-carboxamide] | > 1000 nM | > 1000 nM
COc1ccc(Nc2ncc(C(N)=O)c(N[C@@H]3CC[C@@H](C)[C@H](O)C3)n2)cc1 [Compound T010, 4-(((1R,3R,4R)-3-hydroxy-4-methylcyclohexyl)amino)-2-((4-methoxyphenyl)amino) pyrimidine-5-carboxamide] | < 100 nM | < 100 nM
CC(C)(C)Nc1ncc(C(N)=O)c(Nc2cccc(C(=O)O)c2)n1 [Compound T011, 3-((2-(tert-butylamino)-5-carbamoylpyrimidin-4-yl)amino) benzoic acid] | 500 to 1000 nM | > 1000 nM

Reference: US20230104283A1, “JNK INHIBITOR, AND PHARMACEUTICAL COMPOSITION AND USE THEREOF” (WUHAN LL SCIENCE AND TECHNOLOGY DEVELOPMENT CO. , LTD, priority 2019, published 2023)
